# Earlier results as cited in US20180153800A1, “PERSONAL LUBRICANT PROVIDING SEQUENTIAL MULTISENSORIAL PERCEPTIONS AND ARTICLES INCORPORATING SUCH LUBRICANT” (Church & Dwight Co., Inc., priority 2016, published 2018).
# Test system: human tissue
SMILES,time of onset of cooling sensation (after tissue contact),sensation duration (cooling sensation),cooling sensation relative to menthol (reference menthol) [times]
CC1CCC(C(C)C)C(OC(=O)CCC(=O)N(C)C)C1 (stereo not drawn) [2-isopropyl-5-methylcyclohexyl 4-(dimethylamino)-4-oxobutanoate],about 25 seconds,about 11.25 minutes,
CC1CCC(C(C)C)C(C(=O)Nc2ccc(CC#N)cc2)C1 (stereo not drawn) [N-(4-cyanomethylphenyl) p-menthanecarboxamide],,,10
